In patent US9393221B2, “Methods and compounds for reducing intracellular lipid storage” (THE GENERAL HOSPITAL CORPORATION, priority 2011, dated 2016):
Counter-ions that a name gives are not always drawn.

Columns and labels:
ATGL-KO iPSCs [1] = assay: High throughput iPSC chemical screening, Oil Red O (ORO) lipid accumulation; format: cell-based, mouse; details: for Rank in normalized ORO score from screen: glycolytic switch compounds; for Z-score: normalized ORO level vs DMSO-treated cells, compound present during 7 days differentiation, 96-well, negative = decrease in lipid accumulation
ATGL-KO mice = assay: 18-week observer-blinded placebo-controlled treatment study; format: in vivo, mouse; details: for cardiac function (echocardiography): 14 weeks of age; for overall triglyceride content in the heart: 14 weeks old ATGL-KO mice (FIG. 8d)
Source text: FIGS. 8a-8f show graphs of the in vivo validation of the drug hit efficacy on ATGL-KO mice. (FIG. 8a) Kaplan-Meier survival plot of ATGL-KO mice treated with Mefloquine (N=15), Perhexyline (N=15), Vinpocetin low dose (N=15), Vinpocetin high dose (N=15), or water alone (N=15) (FIG. 8b) Contractile function of wild type mice treated with Mefloquine (Mef), Perhexyline (Per), Vinpocetin (Vin), and water (None) at 3 weeks of age before drug treatment (black) and at 18 weeks of age (white) after drug treatment. (FIG. 8c) Contractile function of ATGL-KO mice treated with Mef, Per, Vin, and water at 3 weeks of age before drug treatment (black) and at 10 (gray), and 14 (white) weeks of age after drug treatment. (FIG. 8d) Measurement of triglyceride content in hearts of 14 weeks old wild type (WT) and ATGL-KO (KO) mice after treatment with the indicated drugs. V (H)—vinpocetin high dose, V (L)—vinpocetin low dose. (FIG. 8e) Measurement of triglyceride content in the liver, lung, and kidney of WT mice (gray) and ATGL-KO mice treated with Per (red), Mef (green), V (H) (blue), V (L) (orange), or water (black). (FIG. 8f) Quantitative PCR analysis of metabolic gene expression in the hearts of 14 weeks old ATGL-KO mice treated with water (black), Per (red), and Mef (green) and in the hearts of age-matched WT mice (gray).
We designed an 18-week observer-blinded placebo-controlled study treating both wild type and ATGL-KO mice with mefloquine, perhexyline, and high and low doses of vinpocetin starting from 3 weeks after birth. We assess the survival of each animal throughout the entire treatment course. We also measured the cardiac function of each animal before treatment and at 10 and 14 weeks of age. […] The effect of these drugs on triglyceride content was observed variably in other tissues such as liver, lung, and kidney (FIG. 8e). While these drugs were able to elicit a similar reduction in triglyceride content, they appear to do so by recruiting genes involved in distinct pathways. (FIG. 8f)

NLSD-M human iPSCs = assay: TG content in differentiated human iPSCs; format: cell-based; details: differentiated human NLSD-M iPSCs (FIG. 9b)
ATGL-KO iPSCs [2] = assay: Cellular metabolism assay (OCR, ECAR); format: cell-based, mouse; details: for extracellular acidification rate (ECAR) / oxygen consumption rate (OCR): day 9 differentiated cells pre-treated overnight at screen concentration; for OCR/ECAR ratio after addition of CCCP: pre-treated cells (FIG. 7d)
Protocol: (§1) FIGS. 7a-7g depict that glycolytic switch inducers modulate the metabolic profile of WT and KO iPSCs. Measurement of (FIG. 7a) oxygen consumption rate (OCR) and (FIG. 7b) extracellular acidification rate (ECAR) in WT and KO iPSCs at day 10 of differentiation following compound pre-treatment for 16 h. Data are expressed as mean±s.d. (n=10 samples, with 3 measurements each) relative to DMSO-treated WT cells. (*P<0.001, student's t-test between compound-treated and DMSO ? treated cells of same type. **P<0.001, student's t-test between DMSO-treated WT and KO cells). Measurement of OCAR/ECAR ratios for drug-treated (FIG. 7c) WT and (FIG. 7d) KO iPSCs following treatment carbonyl cyanide m-chlorophenyl hydrazone (CCCP), at the time indicated (arrow). Antimycin, an electron transport chain inhibitor, was added to each well at the end of the assay to verify that mitochondrial function was intact in drug-treated cells. A schematic model of ATGL ? mediated lipid metabolism in shown for (FIG. 7e) WT cells, (FIG. 7f) KO cells, and (FIG. 7g) drug-treated KO cells.
(§2) We next investigated whether the top-scoring compounds with reported glycolytic switch properties could in fact modulate the OCR and ECAR of differentiated WT and KO iPSCs. We pre-treated day 9 differentiated cells overnight with mefloquine, vinpocetine, and perhexyline at their screen concentrations (Table 3) and measured the changes in OCR and ECAR. […] This is consistent with the increased adaptation to glucose in ATGL-KO cells.
(§3) To determine whether the glycolytic switch inducers work through common or distinct mechanisms, we next examined how the responses of ATGL-KO and WT cells to challenge with carbonyl cyanide m-chlorophenyl hydrazone (CCCP) differed upon pre-treatment with glycolytic switch inducers. CCCP is an uncoupler of the mitochondrial hydrogen gradient that induces maximal cellular oxidative respiration (Goldsby et al., 1963). […] This was due entirely to an increase in OCAR, as the ECAR levels remained relatively unchanged (data not shown).
(§4) ATGL-KO and WT iPSCs were differentiated as EBs to day 9, then collagenase-dissociated and re-plated onto gelatin-coated XF24 plates (Seahorse Bioscience, Andover, Mass.) at a density of 250,000 cells/well. Following an overnight incubation (12-16 hrs) in differentiation medium supplemented with drugs or DMSO, the cells were acclimated to atmospheric CO2 in drug-containing buffer-free medium (Wu, M. et al., 2007) for 1 hour at 37° C. Oxygen consumption rates (OCR) and extracellular acidification rates (ECAR) were measured on the Seahorse Extracellular Flux 24 Analyzer using previously established procedures (Gohil et al., 2010; Wu, M. et al., 2007) and normalized against cell number as assessed by the resazurin assay described above. In all wells, antimycin, an electron transport chain inhibitor, was added at the end of the assay to ascertain that mitochondrial function in the drug-treated cells had been intact and that the OCR and ECAR results were not due to direct mitochondrial toxicity effects from drug treatment.

WT iPSCs = assay: Cellular metabolism assay (OCR, ECAR); format: cell-based, mouse; details: for extracellular acidification rate (ECAR) / oxygen consumption rate (OCR): day 9 differentiated cells pre-treated overnight at screen concentration; for OCR/ECAR ratio after addition of CCCP: pre-treated cells (FIG. 7c)
Protocol: as §1, §2, §3, §4

Structure (SMILES) | Rank in normalized ORO score from screen (ATGL-KO iPSCs [1]) | Z-score (ATGL-KO iPSCs [1]) | cardiac function (echocardiography) (ATGL-KO mice) | overall triglyceride content in the heart (ATGL-KO mice) | intracellular lipid content (TG content) (NLSD-M human iPSCs) | extracellular acidification rate (ECAR) (ATGL-KO iPSCs [2]) | oxygen consumption rate (OCR) (ATGL-KO iPSCs [2]) | OCR/ECAR ratio after addition of CCCP (ATGL-KO iPSCs [2]) | extracellular acidification rate (ECAR) (WT iPSCs) | oxygen consumption rate (OCR) (WT iPSCs) | OCR/ECAR ratio after addition of CCCP (WT iPSCs) | impact on OCR in KO cells compared to WT cells (ATGL-KO iPSCs [2])
OC(c1cc(C(F)(F)F)nc2c(C(F)(F)F)cccc12)C1CCCCN1 (centres unmarked) [Mefloquine hydrochloride] | 3 | −2.3573 | echocardiographic improvements in cardiac function | reduction in the overall triglyceride content in the heart | significantly reduce intracellular lipid content | increased ECAR | decreased OCR | increased the ratio of OCAR/ECAR | increased ECAR | decreased OCR | increased the ratio of OCAR/ECAR | –
C1CCC(C(CC2CCCCN2)C2CCCCC2)CC1 (centres unmarked) [Perhexiline maleate] | 4 | −2.3117 | echocardiographic improvements in cardiac function | reduction in the overall triglyceride content in the heart | – | increased ECAR | decreased OCR | no increase in the OCR/ECAR ratio | increased ECAR | decreased OCR | no increase in the OCR/ECAR ratio | smaller impact on OCR in KO cells compared to WT cells
CCOC(=O)C1=C[C@]2(CC)CCCN3CCc4c(n1c1ccccc41)[C@@H]32 [Vinpocetine] | 2 | −2.4105 | – | reduction in the overall triglyceride content in the heart | – | increased ECAR | decreased OCR | increased the ratio of OCAR/ECAR | increased ECAR | decreased OCR | increased the ratio of OCAR/ECAR | –
NCC[C@H](O)C(=O)N[C@@H]1C[C@H](N)[C@@H](O[C@H]2O[C@H](CN)[C@@H](O)[C@H](O)[C@H]2O)[C@H](O)[C@H]1O[C@H]1O[C@H](CO)[C@@H](O)[C@H](N)[C@H]1O [Amikacin hydrate] | – | 2.444 | – | – | – | – | – | – | – | – | – | –
